The values that follow come from patent US20140329858A1, “Cyclic Urea Derivatives As Androgen Receptor Antagonists” (priority 2011, published 2014).

pIC50: −log10 of the molar value.

The test system of the test is Vcap cells. The test is described as follows: Dihydrotestosterone (DHT) mediated XTT cell proliferation assay for screening AR antagonists using Vcap cells. Conditions: in the presence of 0.2 nM DHT, XTT readout on Day 10, IC50 curves from 8 concentrations. It counts as cell-based. The method, then:
Dihydrotestosterone (DHT) Mediated XTT Cell Proliferation Assay for Screening AR Antagonists Using Vcap cells
The Vcap cells (4×10^6 cells) were seeded in a T-75 flask containing DMEM with 15% FBS. After 72 hours, the media was removed; the cells were washed once and replaced with phenol red free DMEM containing 8% charcoal stripped serum. Then, the cells were starved in phenol red free DMEM with 8% charcoal stripped serum for 5 days. Following the starvation, the cells were harvested and seeded in 96 well plates (10×10^3 cells per well) in phenol red free DMEM with 8% charcoal stripped serum (Day 0). The cells were allowed to settle and on Day 4 they were treated with different concentrations of the compound (30 μM, 10 μM, 1 μM, 500 nM, 100 nM, 10 nM, 1 nM, 0.1 nM) in the presence of 0.2 nM DHT. DHT alone and a DMSO controls were also included. All treatments were done in triplicate. The drugs were replenished on Day 7 and the cells were allowed to grow for another 72 hours. On Day 10, the experiment was terminated by adding the XTT reagent (2,3-bis[2-methoxy-4-notro-5-sulfophenyl]-2H-tetrazolium-5-caboxyanilide inner salt) dissolved in Phenol red free DMEM without serum. The cells with the XTT reagents were incubated inside the CO2 incubator for 3-4 hours for color development; after which the readings were taken at […] using a spectramax Gemini plate reader.
Data fitting: The IC50 curves for the 8 compound concentrations were calculated with GraphPad Prism software using the sigmoidal dose-response function. (Graphpad Software, San Diego, Calif., USA).
On the technique in general: Tetrazolium dyes change colour on reduction, which living cells bring about.

On to `Cc1c(N2C(=O)N(c3ccc(C#N)c(C(F)(F)F)c3)[C@H]3CCCC[C@@H]32)ccc(C#N)c1Cl` (racemic) [Example 42, Trans-2-chloro-4-(3-(4-cyano-3-(trifluoromethyl)phenyl)-2-oxooctahydro-1H-benzo[d]imidazol-1-yl)-3-methylbenzonitrile (±)], for which the pIC50 (Homo sapiens, 240 h) was 6.78.
For the molecule `N#Cc1ccc(N2C(=O)N(Cc3cc[nH]n3)[C@@H]3CCCC[C@H]32)cc1C(F)(F)F` (racemic) [Example 51, Trans-4-(3-((1H-pyrazol-3-yl)methyl)-2-oxooctahydro-1H-benzo[d]imidazol-1-yl)-2-(trifluoromethyl)benzonitrile (±)], under “Homo sapiens, 240 h”, the negative-log IC50 (pIC50) is 5.97.
Take `CCN(CC)CCONC(=O)c1ccc(N2C(=O)N(c3ccc(C#N)c(C(F)(F)F)c3)[C@@H]3CCCC[C@H]32)cc1F` (racemic) [Example 26, Trans-4-(3-(4-cyano-3-(trifluoromethyl)phenyl)-2-oxooctahydro-1H-benzo[d]im-idazol-1-yl)-N-(2-(diethylamino)ethoxy)-2-fluorobenzamide (±)]: the pIC50 (Homo sapiens, 240 h) is 7.12.
As to `CN1CCC(ONC(=O)c2ccc(N3C(=O)N(c4ccc(C#N)c(C(F)(F)F)c4)[C@@H]4CCCC[C@H]43)cc2F)CC1` (racemic) [Example 28, Trans 4-(3-(4-cyano-3-(trifluoromethyl)phenyl)-2-oxooctahydro-1H-benzo[c]im-idazol-1-yl)-2-fluoro-N-((1-methylpiperidin-4-yl)oxy)benzamide (±)], for the setting “Homo sapiens, 240 h”, the negative-log IC50 (pIC50) was 6.83.
For `CNC(=O)c1ccc(N2C(=O)N(c3ccc(C#N)c(C(F)(F)F)c3)[C@@H]3CCCC[C@H]32)cc1F` (racemic) [Example 1, Trans-4-{3-[4-cyano-3-(trifluoromethyl)phenyl]-2-oxo-octahydro-1H-1,3-benzodiazol-1-yl}-2-fluoro-N-Methylbenzamide (±)], for the setting “Homo sapiens, 240 h”, the pIC50 was 6.61.
Consider `CNC(=O)c1ccc(N2C(=O)N(c3ccc(C#N)c(C(F)(F)F)c3)[C@@H]3CCC(=O)C[C@H]32)cc1F` (racemic) [Example 81, Trans-4-(3-(4-cyano-3-(trifluoromethyl)phenyl)-2,6-dioxooctahydro-1H-benzo[d]imidazol-1-yl)-2-fluoro-N-methylbenzamide (±)], for which the pIC50 (Homo sapiens, 240 h) is 6.15.
With `N#Cc1ccc(N2C(=O)N(c3cc(Cl)cc(Cl)c3)[C@H]3CCCC[C@@H]32)cc1C(F)(F)F` [Example 44, 4-((3aS,7aS)-3-(3,5-dichlorophenyl)-2-oxooctahydro-1H-benzo[d]imidazol-1-yl)-2-(trifluoromethyl)benzonitrile], the pIC50 (Homo sapiens, 240 h) is 7.02.
For the molecule `N#Cc1ccc(N2C(=O)N(c3ccc(C(=O)NOCC4CCCO4)c(F)c3)[C@@H]3CCCC[C@H]32)cc1C(F)(F)F` (mixture of isomers) [Example 27, Trans 4-(3-(4-cyano-3-(trifluoromethyl)phenyl)-2-oxooctahydro-1H-benzo[c]im-idazol-1-yl)-2-fluoro-N-((tetrahydrofuran-2-yl)methoxy)benzamide (±)], the pIC50 (Homo sapiens, 240 h) was 6.71.
For the molecule `N#Cc1ccc(N2C(=O)N(c3ccc(C#N)c(C(F)(F)F)c3)[C@@H]3CCCC[C@H]32)cc1C(F)(F)F` (relative stereo) [Example 2a, Trans-4,4′-(2-oxohexahydro-1H-benzo[d]imidazole-1,3(2H)-diyl)bis(2-(trifluoromethyl)benzonitrile) (−)], the pIC50 was 6.64.
For `N#Cc1ccc(CN2C(=O)N(c3ccc(C#N)c(C(F)(F)F)c3)[C@@H]3CCCC[C@H]32)cn1` (racemic) [Example 48, Trans-5-((-(4-cyano-3-(trifluoromethyl)phenyl)-2-oxooctahydro-1H-benzo[d]im-idazol-1-yl)methyl)picolinonitrile (±)], under “Homo sapiens, 240 h”, the negative-log IC50 (pIC50) was less than 5.00.
In the case of `CNC(=O)c1ccc(N2C(=O)N(c3ccc(C#N)c(C(F)(F)F)c3)[C@@H]3CCCC[C@H]32)s1` (racemic) [Example 40, Trans-5-(3-(4-cyano-3-(trifluoromethyl)phenyl)-2-oxooctahydro-1H-benzo[d]imidazol-1-yl)-N-methylthiophene-2-carboxamide (±)], the pIC50 (Homo sapiens, 240 h) was less than 5.00.
On to `CNC(=O)c1ccc(N2C(=O)N(c3ccc(C#N)c(C(F)(F)F)c3)[C@@H]3COCC[C@H]32)cc1F` (relative stereo) [Example 71a, Trans-4-{3-[4-Cyano-3-(trifluoromethyl)phenyl]-2-oxo-octahydropyrano[3,4-d]imidazolidin-1-yl}-2-fluoro-N-methylbenzamide (+)], for which the pIC50 is less than 5.00.
Take `N#Cc1ccc(N2C(=O)N(c3ccnc(F)c3)[C@@H]3CCCC[C@H]32)cc1C(F)(F)F` (racemic) [Example 10, Trans-4-(3-(2-fluoropyridin-4-yl)-2-oxooctahydro-1H-benzo[d]imidazol-1-yl)-2-(trifluoromethyl)benzonitrile (±)]: the pIC50 (Homo sapiens, 240 h) was 6.44.
In the case of `CNC(=S)c1ccc(N2C(=O)N(c3ccc(C#N)c(C(F)(F)F)c3)[C@H]3CCCC[C@@H]32)cc1F` [Example 41, 4-((3aS,7 aS)-3-(4-cyano-3-(trifluoromethyl)phenyl)-2-oxooctahydro-1H-benzo[d]imidazol-1-yl)-2-fluoro-N-methylbenzothioamide], under “Homo sapiens, 240 h”, the pIC50 was 6.87.
`N#Cc1ccc(N2C(=O)N(c3ccc(C(N)=O)c(F)c3)[C@@H]3CCCC[C@H]32)cc1C(F)(F)F` (racemic) [Example 30, Trans-4-(3-(4-cyano-3-(trifluoromethyl)phenyl)-2-oxooctahydro-1H-benzo[d]im-idazol-1-yl)-2-fluorobenzamide (±)]: the negative logarithm of the IC50 (pIC50) (Homo sapiens, 240 h) was 7.12.
Still for that read-out and setting: the figure for `Cc1cc(N2C(=O)N(c3ccc(C#N)c(C(F)(F)F)c3)[C@H]3CCCC[C@@H]32)ccc1C(N)=O` [Example 70, 4-((3aS,7aS)-3-(4-cyano-3-(trifluoromethyl)phenyl)-2-oxooctahydro-1H-benzo[d]imidazol-1-yl)-2-methylbenzamide] is 6.14; for `CNC(=O)c1ccc(N2C(=O)N(c3ccc(C#N)c(C(F)(F)F)c3)[C@@H]3COCC[C@H]32)cc1F` (racemic) [Example 71, Trans-4-{3-[4-Cyano-3-(trifluoromethyl)phenyl]-2-oxo-octahydropyrano[3,4-d]imidazolidin-1-yl}-2-fluoro-N-methylbenzamide (±)] it is 6.18.
Same read-out and setting: the figure for `CNC(=O)c1ccc(N2C(=O)N(c3ccc(C#N)c(C(F)(F)F)c3)[C@@H]3CCC=C[C@H]32)cc1F` (racemic) [Example 84, trans-4-(3-(4-cyano-3-(trifluoromethyl)phenyl)-2-oxo-2,3,3a,4,5,7a-hexahydro-1H-benzo[d]imidazol-1-yl)-2-fluoro-N-methylbenzamide (±)] is 6.79.
As for `CNC(=O)c1ccc(N2C(=O)N(c3ccc(C#N)c(C(F)(F)F)c3)C3CCC(O)CC32)cc1F` (single isomer, unassigned) [Example 82a, Trans-4-(3-(4-cyano-3-(trifluoromethyl)phenyl)-6-hydroxy-2-oxooctahydro-1H-benzo[d]imidazol-1-yl)-2-fluoro-N-methylbenzamide (+)], the pIC50 is less than 5.00.
With `N#Cc1ccc(N2C(=O)N(c3ccc(Cl)cc3)[C@@H]3CCCC[C@H]32)cc1C(F)(F)F` (racemic) [Example 60, Trans-4-(3-(4-chlorophenyl)-2-oxooctahydro-1H-benzo[d]imidazol-1-yl)-2-(trifluoromethyl)benzonitrile (±)], the pIC50 (Homo sapiens, 240 h) was 6.40.
In the case of `N#Cc1ccc(N2C(=O)N(c3ccc(C(=O)O)c(F)c3)[C@@H]3CCCC[C@H]32)cc1C(F)(F)F` (racemic) [Example 17, Trans-4-(3-(4-cyano-3-(trifluoromethyl)phenyl)-2-oxooctahydro-1H-benzo[d]im-idazol-1-yl)-2-fluorobenzoic acid (±)], the negative logarithm of the IC50 (pIC50) (Homo sapiens, 240 h) is less than 5.00.
On the same count and under the same terms, the figure for `CN1C(=O)N(c2ccc(C#N)c(C(F)(F)F)c2)[C@@H]2CCC(c3ccccc3)C[C@H]21` (stereo partly drawn) [Example 90, Trans-4-(3-methyl-2-oxo-5-phenyloctahydro-1H-benzo[d]imidazol-1-yl)-2-(trifluoromethyl)benzonitrile] is 6.43.
With `CNC(=O)c1ccc(N2C(=O)N(c3ccc(C#N)c(C(F)(F)F)c3)[C@@H]3CC=CC[C@H]32)cc1F` (relative stereo) [Example 83a], the pIC50 is less than 5.00.
With `CC(=O)Nc1ccc(N2C(=O)N(c3ccc(C#N)c(C(F)(F)F)c3)[C@@H]3CCCC[C@H]32)cc1F` (racemic) [Example 12], the negative logarithm of the IC50 (pIC50) (Homo sapiens, 240 h) is 6.27.
With `N#Cc1ccc(N2C(=O)N(Cc3ccc(-n4cccn4)nc3)[C@@H]3CCCC[C@H]32)cc1C(F)(F)F` (racemic) [Example 50, Trans-4-(3-((6-(1H-pyrazol-1-yl)pyridin-3-yl)methyl)-2-oxooctahydro-1H-benzo[d]imidazol-1-yl)-2-(trifluoromethyl)benzonitrile (±)], where the note is “Homo sapiens, 240 h”, the pIC50 was less than 5.00.
On to `N#Cc1ccc(N2C(=O)N(c3ccnc(F)c3)[C@@H]3CCCC[C@H]32)cc1C(F)(F)F` (relative stereo) [Example 10a, Trans-4-(3-(2-fluoropyridin-4-yl)-2-oxooctahydro-1H-benzo[d]imidazol-1-yl)-2-(trifluoromethyl)benzonitrile (+)], for which the pIC50 is 5.59.

A word on the pIC50: it is −log10 of the IC50, conventionally taken in molar units.
